# From article PMC12281142, “A potent phenylalkylamine disrupts mycobacterial membrane bioenergetics and augments bactericidal activity of bedaquiline” (iScience, 2025)
# Key:
# M. bovis BCG = format: cell-based, Mycobacterium bovis BCG
# Mtb H37Rv = conditions: drug sensitive and resistant strains of Mtb H37Rv; cited from earlier work
SMILES,spontaneous mutation frequency (M. bovis BCG),decrease in BDQ MIC caused by VP (Mtb H37Rv)
CCCCCCCCC(C#N)(CCCN(C)CCc1ccc(OC)c(OC)c1)c1ccc(OC)c(OC)c1 (centres unmarked) [PhA2],< 10^−9 /CFU,–
"COc1ccc(CCN(C)CCCC(C#N)(c2ccc(OC)c(OC)c2)C(C)C)cc1OC (centres unmarked) [VP, verapamil, reference compound]",–,20 fold
